Experiments:
[1] = tested on: Fibroblast (Flow 4000, lung fibroblasts); assay: toxicity on normal cells, tetrazolium-based proliferation assay (EZ4U kit); format: cell-based; conditions: for % Inhibition of growth: concentration of 1:400, normal cells, Flow 4000 lung fibroblasts, 4 days incubation; for toxicity to fibroblasts: result in words
Procedure: Cells were distributed to the wells of 96 well microtiter plates (10000 cells/well) in tissue culture medium (RPMI-1640 supplemented with 10% fetal bovine serum and 4 mM glutamine) and medium added for controls. Test compounds were added in the reported dilution steps and the plates incubated for 4 days under tissue culture conditions (37° C., 5% CO2).
Following incubation proliferation was measured using a tetrazolium-based assay (EZ4U kit, Biomedica, Vienna, Austria). Optical densities (OD) of the individual wells was determined with the help of an ELISA-Reader (all values done in triplicate) and the values obtained in medium controls set to 100% (OD490nm=0.5-1.5).
In addition the toxicity of a number of the esters of the invention have been tested on normal cells, Fibroblast (Flow 4000, lung fibroblasts).

[2] = tested on: panel of human tumour cell lines; assay: anti-cancer activity, tetrazolium-based proliferation assay (EZ4U kit) in a panel of tumour cell lines; conditions: result in words
Procedure: For the following test the following cell lines have been used:
Cell lines. Except indicated otherwise all cell lines were obtained from the American Type Culture Collection (ATCC, Rockville, Md.) and grown to confluent monolayers in RPMI-1640 bicarbonate medium (Seromed, Berlin, Germany) in a humidified incubator (5% CO2, 37° C.). Cells were checked for mycoplasma contamination. The medium was supplemented with 10% heat-inactivated fetal bovine serum (Seromed) and 4 mM glutamine. The cells were subcultured by trypsination (0.03% trypsin containing 0.02% EDTA, three times a week). Cell numbers were counted using a TOA Sysmex microcellcounter (TOA, Tokyo, Japan).
Chemicals and solutions. Unless otherwise mentioned, all chemicals were obtained from Sigma (St. Louis, Mo.). Compounds to be tested were used as supplied. CHP was used as 5 mg/ml stock solution in PBS (phosphate buffered saline, Dulbecco) and aliquots were stored frozen at −20° C. Related compounds were used as 2 mg/ml stock solution and stored frozen at −20° C. […]
Following incubation proliferation was measured using a tetrazolium-based assay (EZ4U kit, Biomedica, Vienna, Austria). Optical densities (OD) of the individual wells was determined with the help of an ELISA-Reader (all values done in triplicate) and the values obtained in medium controls set to 100% (OD490nm=0.5-1.5). […]

Row | Structure (SMILES) | % Inhibition of growth [1] | toxicity to fibroblasts [1] | antitumor activity [2]
1 | CC(=O)OCC#CCN1CCSCC1 [L13, N-(4-thiomorpholino-2-butynyl)acetate] | 19% | – | –
2 | CCC(=O)OCC#CCN1CCOCC1 [L15, N-(4-morpholino-2-butynyl)propionate] | 13% | – | –
3 | O=C(OCC#CCN1CCOCC1)c1ccccc1 [L4, N-(4-morpholino-2-butynyl)benzoate] | 34.2% | – | –
4 | CC(=O)OCC#CCN1CCOCC1 [L2, N-(4-morpholino-2-butynyl)acetate] | 18% | low toxicity to fibroblasts | highest antitumor activity
5 | CC(C)(C)C(=O)OCC#CCN1CCOCC1 [L18, N-(4-morpholino-2-butynyl)pivalate] | 7% | low toxicity to fibroblasts | highest antitumor activity
6 | CCN(CC)CC#CCOC(C)=O [L9, N-[4-(N,N-diethylamino)-2-butynyl]acetate] | 5.4% | – | –
7 | CC(=O)OCC#CCN(c1ccccc1)c1ccccc1 [L12, N-[4-(N,N-diphenylamino)-2-butynyl]acetate] | −7.6% | – | –
8 | O=COCC#CCN1CCOCC1 [L6, N-(4-morpholino-2-butynyl)formate] | 37.4% | – | –

— patent publication US20070265269A1, “Water Soluble Esters of [N-(4-Amino-2-Butynyl)] with Anticancer Activity” (priority 2004, published 2007)
